Biological target: thrombin (Homo sapiens, UniProt P00734)
Assay: Ki determinations thrombin (fluorogenic substrate Tosyl-GPR-AMC)
Type: biochemical
Settings: 20 °C; Tosyl-GPR-AMC 20 µM; thrombin concentration of 100 pM; HBS pH 7.4
Protocol: The Ki determinations are carried out at 20 °C with the fluorogenic substrate Tosyl-GPR-AMC (Bachem, Heidelberg, Germany; λexc = 370 nm, λem = 450 nm) at a thrombin concentration of 100 pM in HBS pH 7.4. The substrate is added to a final concentration of 20 µM in a total assay volume of 100 µl. The enzymatic reaction is started by addition of substrate. The emission at 450 nm is monitored in 1 minute intervals for 10 minutes using a polarstar reader (BMG Laboratories, Offenburg, Germany). Initial velocities of the control and the inhibited reactions (vo and vi) are estimated in FU/min at different compound concentrations. The inhibition constants are calculated using the Michaelis-Menten equation for competitive inhibition.

Ki: < 1000 nM
Structure (SMILES): Fc1c(NCCC2CCCCN2)ncc(Cl)c1CCNCc1n[nH]c2ccc(Cl)cc12 (stereo not shown) [example 1]

— EP1655296A1, “Thrombin inhibitors” (Graffinity Pharmaceuticals AG, priority 2004, dated 2006)
